From patent US10315996B2, “ROR gamma (RORγ) modulators” (LEAD PHARMA HOLDING B.V., priority 2015, dated 2019)

Target: T1, RORγ (Homo sapiens, UniProt P51449)
T1 construct: expressed in transfected cells; host or cells: 293FT cells (Invitrogen), expression vector pFN26A (Promega)
T1 sequence (P51449 269-508 limits assumed): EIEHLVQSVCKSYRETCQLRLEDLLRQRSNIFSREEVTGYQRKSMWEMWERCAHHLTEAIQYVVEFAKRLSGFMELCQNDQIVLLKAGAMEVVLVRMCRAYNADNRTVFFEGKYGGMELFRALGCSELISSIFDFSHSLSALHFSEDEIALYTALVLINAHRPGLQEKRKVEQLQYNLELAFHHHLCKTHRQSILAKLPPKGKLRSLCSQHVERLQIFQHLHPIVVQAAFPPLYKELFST
Assay: RORγ GAL4 reporter gene assay
Type: cell-based
Conditions: inhibition of RORγ activity, GAL4-RORγ-LBD luciferase reporter in 293FT cells, overnight incubation; read-out: mean pIC50 (converted)
Procedure: Example inhibitors 1-166 were tested for their ability to inhibit RORγ activity in a RORγ GAL4 reporter gene assay. The assay procedure and results are described below.
RORγ GAL4 Reporter Gene Assay Description
A GAL4 one-hybrid reporter system employing luciferase readout was established to determine inhibition of RORγ in 293FT cells. The RORγ ligand-binding domain (LBD) was fused to the yeast GAL4 DNA binding domain (DBD) and placed under the control of the human cytomegalovirus (CMV) immediate early promoter, using expression vector pFN26A (Promega) and standard recombinant DNA cloning methods. To serve as a control in the assay, a similar vector was generated in which the GAL4-DBD was fused to Herpes simplex virus protein 16 (VP16), a constitutive transcriptional activator.
To monitor the inhibitory effect of compounds on RORγ, a transcriptional reporter construct was used. The pGL4.35 vector (Promega) contains nine copies of the GAL4 Upstream Activator Sequence (UAS). This sequence drives the transcription of the luciferase reporter gene luc2P in response to binding of a fusion protein containing the GAL4 DNA binding domain, as for example expressed by the GAL4-RORγ-LBD and GAL4-VP16 expression vectors described above. To allow a GAL4 fusion protein to drive the expression of the luciferase reporter, the pGL4.35 expression vector and the appropriate GAL4 fusion protein expression vector were bulk transfected in the 293FT cells using standard transfection techniques.
The day after transfection, cells were plated into 96 well plates, test compound was added and the plates were incubated overnight. Subsequently, the firefly luciferase activity was quantified using luciferase detection reagent and luminescence readout.
Detailed Assay Description
293FT cells (Invitrogen) were transfected with a GAL4 fusion protein expression vector (as described above) and the transcriptional reporter construct (pGL4.35, Promega). 60 μL of TransIT-293 transfection reagent (Mirus Bio) was added drop wise to 1500 μl Opti-MEM I Reduced Serum Medium (Invitrogen) and incubated at room temperature (RT) for 5 to 20 minutes. 1500 μL of this reagent mixture was added to 5 μg of GAL4 fusion protein expression vector and 5 μg of the transcriptional reporter construct, and incubated at RT for 20 minutes.
To harvest 293FT cells from a T75 flask, first the culture medium was taken off the cells. Subsequently, the cells were washed with Phosphate Buffered Saline (PBS) (Lonza), after which the PBS was removed. To dissociate the cells, 1 ml of TrypLE Express (Invitrogen) was added to the flask, followed by incubation at RT until the cells visually started to detach. Cells were collected in 5 mL of assay medium (DMEM culture medium (Lonza), 10% dialyzed FBS (Invitrogen) and Pen/Strep (Lonza)) to achieve a single cell suspension. 10×10^6 cells were spun down and re-suspended in 10 mL of assay medium. Subsequently, the cell suspension was added to the transfection mix tube, and then transferred as a whole to a T75 flask (Greiner), followed by overnight (16-24 hours) incubation at 37° C. and 5% CO2.
For compound screening, the cells were harvested (as described above) and counted. 13×10^6 cells were spun down, the supernatant was aspirated and the cells were re-suspended in 17.3 mL of assay medium obtaining a cell suspension of 0.75×10^6 cells/mL. 80 μL of cell suspension (60,000 cells) was plated per well into a white, flat bottom, tissue culture treated, 96 well screening plates (Greiner).
Test compounds were diluted, starting from a 10 mM dimethylsulfoxide (DMSO) stock solution, to serial dilutions in DMSO at 500× the final test concentration. Subsequently, these solutions were diluted to 5× the final test concentration in two 10-fold-dilution steps in assay medium. The final DMSO concentration of the 5× test compound solution was 1%. […]

## COc1ccccc1[C@H](C)NC(=O)c1ccc(NC(=O)Cc2ccc(S(=O)(=O)CC3CC3)cc2)cc1 [Example 70, 4-[2-(4-cyclopropylmethanesulfonylphenyl)acetamido]-N-[(1S)-1-(2-methoxyphenyl)ethyl]benzamide]
  IC50: ≤ 1000 nM

## CCN(C(=O)c1ccc(NC(=O)Cc2ccc(S(=O)(=O)CC3CC3)cc2)c(C)c1)c1ccccc1 [Example 105, 4-[2-(4-cyclopropylmethanesulfonylphenyl)acetamido]-N-ethyl-3-methyl-N-phenylbenzamide]
  IC50: ≤ 100 nM

## CCCN(C(=O)c1ccc(NC(=O)Cc2ccc(S(=O)(=O)CC3CC3)cc2)cc1)c1cc(C)nn1C [Example 86, 4-[2-(4-cyclopropylmethanesulfonylphenyl)acetamido]-N-(1,3-dimethyl-1H-pyrazol-5-yl)-N-propylbenzamide]
  IC50: ≤ 10 nM

## CC(C)(NC(=O)c1ccc(NC(=O)Cc2ccc(S(=O)(=O)CC3CC3)cc2)cc1)c1cccnc1 [Example 68, 4-[2-(4-cyclopropylmethanesulfonylphenyl)acetamido]-N-[2-(pyridin-3-yl)propan-2-yl]benzamide]
  IC50: ≤ 1000 nM

## COc1ccccc1N(C)C(=O)c1ccc(NC(=O)Cc2ccc(S(=O)(=O)CC3CC3)cc2)cc1F [Example 124, 4-[2-(4-cyclopropylmethanesulfonylphenyl)acetamido]-2-fluoro-N-(2-methoxyphenyl)-N-methylbenzamide]
  IC50: ≤ 10 nM

## N#CC(NC(=O)c1ccc(NC(=O)Cc2ccc(S(=O)(=O)CC3CC3)cc2)cc1)c1cccs1 (centres unmarked) [Example 72, N-[cyano(thiophen-2-yl)methyl]-4-[2-(4-cyclopropylmethanesulfonylphenyl)acetamido]benzamide]
  IC50: ≤ 1000 nM

## Cc1cccc(C)c1NC(=O)c1ccc(NC(=O)Cc2ccc(S(=O)(=O)CC3CC3)cc2)cc1 [Example 75, 4-[2-(4-cyclopropylmethanesulfonylphenyl)acetamido]-N-(2,6-dimethylphenyl) benzamide]
  IC50: ≤ 100 nM

## O=C(Cc1ccc(S(=O)(=O)CC2CC2)cc1)Nc1ccc(C(=O)N(Cc2ccccc2)Cc2ccccc2)cc1 [Example 12, N,N-dibenzyl-4-[2-(4-cyclopropylmethanesulfonylphenyl)acetamido]benzamide]
  IC50: ≤ 100 nM

## CCN(C(=O)c1ccc(NC(=O)Cc2ccc(S(=O)(=O)NC3CC3)cc2)nc1)c1ccccc1 [Example 54, 6-{2-[4-(cyclopropylsulfamoyl)phenyl]acetamido}-N-ethyl-N-phenylpyridine-3-carboxamide]
  IC50: ≤ 1000 nM

## CC(NC(=O)c1ccc(NC(=O)Cc2ccc(S(=O)(=O)CC3CC3)cc2)cc1)c1ccccc1 (centres unmarked) [Example 14, 4-[2-(4-cyclopropylmethanesulfonylphenyl)acetamido]-N-(1-phenylethyl)benzamide]
  IC50: ≤ 100 nM

## Cc1ccccc1N(C)C(=O)c1ccc(NC(=O)Cc2ccc(S(=O)(=O)CC3CC3)cc2)cc1Cl [Example 117, 2-chloro-4-[2-(4-cyclopropylmethanesulfonylphenyl)acetamido]-N-methyl-N-(2-methylphenyl)benzamide]
  IC50: ≤ 10 nM

## O=C(Cc1ccc(S(=O)(=O)CC2CC2)cc1)Nc1ccc(C(=O)N2CCCc3ccccc32)cc1 [Example 40, 2-(4-cyclopropylmethanesulfonylphenyl)-N-[4-(1,2,3,4-tetrahydroquinoline-1-carbonyl)phenyl]acetamide]
  IC50: ≤ 10 nM

## CC(C)(C1CCCO1)N(C(=O)c1ccc(NC(=O)Cc2ccc(S(=O)(=O)CC3CC3)cc2)cc1)c1ccccc1 (centres unmarked) [Example 135, 4-[2-(4-cyclopropylmethanesulfonylphenyl)acetamido]-N-[2-(oxolan-2-yl)propan-2-yl]-N-phenylbenzamide]
  IC50: ≤ 100 nM

## CCN(C(=O)c1ccc(NC(=O)Cc2ccc(S(=O)(=O)CC3CC3)nc2)cc1Cl)c1ccccc1 [Example 157, 2-chloro-4-[2-(6-cyclopropylmethanesulfonylpyridin-3-yl)acetamido]-N-ethyl-N-phenylbenzamide]
  IC50: ≤ 100 nM

## CC1(N(C(=O)c2ccc(NC(=O)Cc3ccc(S(=O)(=O)CC4CC4)cc3)cc2)c2ccccc2)CC1 [Example 142, 4-[2-(4-cyclopropylmethanesulfonylphenyl)acetamido]-N-(1-methylcyclopropyl)-N-phenylbenzamide]
  IC50: ≤ 10 nM

## CCN(C(=O)c1ccc(NC(=O)Cc2ccc(S(=O)(=O)CC3CC3)cc2)cc1)c1nnc(C)s1 [Example 96, 4-[2-(4-cyclopropylmethanesulfonylphenyl)acetamido]-N-ethyl-N-(5-methyl-1,3,4-thiadiazol-2-yl)benzamide]
  IC50: ≤ 100 nM

## CN1CCN(C(=O)c2ccc(NC(=O)Cc3ccc(S(=O)(=O)CC4CC4)cc3)cc2)C(c2ccccc2)C1 (centres unmarked) [Example 57, 2-(4-cyclopropylmethanesulfonylphenyl)-N-[4-(4-methyl-2-phenylpiperazine-1-carbonyl)phenyl]acetamide]
  IC50: ≤ 100 nM

## O=C(Cc1ccc(S(=O)(=O)CC2CC2)cc1)Nc1ccc(C(=O)N2CCCCC2)cc1 [Example 36, 2-(4-cyclopropylmethanesulfonylphenyl)-N-[4-(piperidine-1-carbonyl)phenyl]acetamide]
  IC50: ≤ 1000 nM

## CCN(C(=O)c1ccc(NC(=O)Cc2ccc(S(=O)(=O)CC3CC3)cc2)cc1)c1nccs1 [Example 84, 4-[2-(4-cyclopropylmethanesulfonylphenyl)acetamido]-N-ethyl-N-(1,3-thiazol-2-yl)benzamide]
  IC50: ≤ 100 nM

## O=C(Cc1ccc(S(=O)(=O)CC2CC2)cc1)Nc1ccc(C(=O)N(CC(F)(F)F)c2ccccc2)c(Cl)c1 [Example 123, 2-chloro-4-[2-(4-cyclopropylmethanesulfonylphenyl)acetamido]-N-phenyl-N-(2,2,2-trifluoroethyl)benzamide]
  IC50: ≤ 10 nM

## CCN(C(=O)c1ccc(NC(=O)Cc2ccc(S(=O)(=O)CC3CC3)cc2)cc1)c1nc(C)c(C)s1 [Example 64, 4-[2-(4-cyclopropylmethanesulfonylphenyl)acetamido]-N-(4-methyl-5-methyl-1,3-thiazol-2-yl)-N-ethylbenzamide]
  IC50: ≤ 10 nM

## CCN(C(=O)c1ccc(NC(=O)Cc2ccc(S(=O)(=O)NC3CC3)cc2)cc1)c1nnc(C)s1 [Example 97, 4-{2-[4-(cyclopropylsulfamoyl)phenyl]acetamido}-N-ethyl-N-(5-methyl-1,3,4-thiadiazol-2-yl)benzamide]
  IC50: ≤ 1000 nM

## CC(C)(CO)N(C(=O)c1ccc(NC(=O)Cc2ccc(S(=O)(=O)CC3CC3)cc2)cc1)c1ccccc1 [Example 138, 4-[2-(4-cyclopropylmethanesulfonylphenyl)acetamido]-N-(1-hydroxy-2-methylpropan-2-yl)-N-phenylbenzamide]
  IC50: ≤ 100 nM

## CN(Cc1ccco1)C(=O)c1ccc(NC(=O)Cc2ccc(S(=O)(=O)CC3CC3)cc2)cc1 [Example 59, 4-[2-(4-cyclopropylmethanesulfonylphenyl)acetamido]-N-(furan-2-ylmethyl)-N-methylbenzamide]
  IC50: ≤ 100 nM

## CCN(C(=O)c1ccc(NC(=O)Cc2ccc(S(=O)(=O)CC3CC3)cc2)c(Cl)c1)c1ccccc1 [Example 53, 3-chloro-4-[2-(4-cyclopropylmethanesulfonylphenyl)acetamido]-N-ethyl-N-phenylbenzamide]
  IC50: ≤ 100 nM

## CC(C)(C)N(C(=O)c1ccc(NC(=O)Cc2ccc(S(=O)(=O)CC3CC3)nc2)cc1)c1ccccc1 [Example 158, N-tert-butyl-4-[2-(6-cyclopropylmethanesulfonylpyridin-3-yl)acetamido]-N-phenylbenzamide]
  IC50: ≤ 10 nM
